This note sets out measurements from patent US20030211170A1, “Use of physiologically acceptable vanadium compounds, salts and complexes” (GHO'ST HOLDING B.V., priority 1997, published 2003).

For experiment [1], the system named is hearts of phenobarbital anaesthetized rats (myocardial tissue). The experiment in a line: Infarct size after 60 minutes coronary artery occlusion and 180 minutes of reperfusion in anaesthetized rats. The format is in vivo, rat. To be noted: normothermia (36.5-37.5° C.), 3.3 mg/kg bodyweight i.v. bolus in 10 minutes, 25 minutes prior to CAO, 60 min CAO, 180 min reperfusion, mean ± standard error margin, n=6, P<0.001 vs control (69±2%). How it is done: Area at risk (AR) and infarcted area (IA) were determined in hearts of phenobarbital anaesthetized rats after 60 minutes coronary artery occlusion (CAO) and 180 minutes of reperfusion. […] The mean AR expressed as percentage of the left yentricle was not different between the control and the experimental group (42±2% and 42±3%, respectively).

In experiment [2] the test system is deep burn wounds (skin/dermis structures). The experiment in a line: Deep burn wound model in the Yorkshire pig. The experiment is classed as in vivo, Yorkshire White. To be noted: administered intravenously in a single dose. An excerpt:
The Yorkshire pig has been chosen as the experimental animal because of all animal species this domestic pig seems to be the one with morphological and functional skin characteristics nearest to human skin and so best fulfils the requirements of a model for human skin. In basic architecture it resembles human skin in the relative thickness of the epidermis and dermis, the presence of epidermal ridges, a distinct dermal papillary layer and a deep layer of subdermal fat. Compared to human the elastic fibre content of porcine dermis is relatively low, but higher than in any other species. […] Studies on the proliferation rate of porcine epidermis show parallels with those of humans. The keratinous proteins are similar. Unlike the skin of rodents, the follicular pattern in pigs and humans is relatively sparse and arranged as single hairs or in groups of two or three follicles. […] The regulation of body temperature by the skin is more evident in humans than in the pig. In the skin of the pig no eccrine glands are found. It does have apocrine glands, but their role in thermoregulation remains debatable. The vascular anatomy of pig skin consists of a three layered network; lower, mid-dermal and sub epidermal. The size, orientation and distribution of the vessels are strikingly similar to human skin, but it does differ from humans in that the sub epidermal network is less dense. The vascularisation of the lower region of the follicle corresponds to that in humans. The healing of deep dermal burns, which depends on this phenomenon, might also be analogous. Studies on the thermal properties of porcine skin as a function of depth have been performed by measuring the tissue water content.
Protocol 1a: Twelve identical deep burn wounds were inflicted in each animal. The animal model used is developed in the Burn Research Institute (Beverwijk, The Netherlands) and is a standard for all of the experimental burn wound research. The model is also accepted by the animal experimental commission of the University of Amsterdam. […]

Structures are written as SMILES.

As to `Cc1occc(=O)c1[O-].Cc1occc(=O)c1[O-].[O]=[V+2]` [bis(maltolato)oxovanadium(IV)], in experiment [1], the “IA/AR ratio (infarcted area / area at risk)” value was found to be 45±3%. In addition, in experiment [2], the contractions of scars result was “considerably reduced”; the “healing of burn wounds” value is “faster healing”; the “structures present in the dermis (deep vascular plexus, hair-adnexes (sebaceous glands), sweat glands)” value was “protected”.
